# Reference: ChEMBL document CHEMBL1129291, “Tyrosine kinase inhibitors. 8. An unusually steep structure-activity relationship for analogues of 4-(3-bromoanilino)-6,7-dimethoxyquinazoline (PD 153035), a potent inhibitor of the epidermal growth factor receptor” (J Med Chem, 1996)
# Biological target: Epidermal growth factor receptor (Homo sapiens, UniProt P00533)
# Assay: Concentration required to inhibit the phosphorylation of a 14-residue fragment of phospholipase C gamma 1 by Epidermal growth factor receptor from A431 cell vesicles
# Epidermal growth factor receptor, sequence (P00533 whole entry, the tested form may be a part): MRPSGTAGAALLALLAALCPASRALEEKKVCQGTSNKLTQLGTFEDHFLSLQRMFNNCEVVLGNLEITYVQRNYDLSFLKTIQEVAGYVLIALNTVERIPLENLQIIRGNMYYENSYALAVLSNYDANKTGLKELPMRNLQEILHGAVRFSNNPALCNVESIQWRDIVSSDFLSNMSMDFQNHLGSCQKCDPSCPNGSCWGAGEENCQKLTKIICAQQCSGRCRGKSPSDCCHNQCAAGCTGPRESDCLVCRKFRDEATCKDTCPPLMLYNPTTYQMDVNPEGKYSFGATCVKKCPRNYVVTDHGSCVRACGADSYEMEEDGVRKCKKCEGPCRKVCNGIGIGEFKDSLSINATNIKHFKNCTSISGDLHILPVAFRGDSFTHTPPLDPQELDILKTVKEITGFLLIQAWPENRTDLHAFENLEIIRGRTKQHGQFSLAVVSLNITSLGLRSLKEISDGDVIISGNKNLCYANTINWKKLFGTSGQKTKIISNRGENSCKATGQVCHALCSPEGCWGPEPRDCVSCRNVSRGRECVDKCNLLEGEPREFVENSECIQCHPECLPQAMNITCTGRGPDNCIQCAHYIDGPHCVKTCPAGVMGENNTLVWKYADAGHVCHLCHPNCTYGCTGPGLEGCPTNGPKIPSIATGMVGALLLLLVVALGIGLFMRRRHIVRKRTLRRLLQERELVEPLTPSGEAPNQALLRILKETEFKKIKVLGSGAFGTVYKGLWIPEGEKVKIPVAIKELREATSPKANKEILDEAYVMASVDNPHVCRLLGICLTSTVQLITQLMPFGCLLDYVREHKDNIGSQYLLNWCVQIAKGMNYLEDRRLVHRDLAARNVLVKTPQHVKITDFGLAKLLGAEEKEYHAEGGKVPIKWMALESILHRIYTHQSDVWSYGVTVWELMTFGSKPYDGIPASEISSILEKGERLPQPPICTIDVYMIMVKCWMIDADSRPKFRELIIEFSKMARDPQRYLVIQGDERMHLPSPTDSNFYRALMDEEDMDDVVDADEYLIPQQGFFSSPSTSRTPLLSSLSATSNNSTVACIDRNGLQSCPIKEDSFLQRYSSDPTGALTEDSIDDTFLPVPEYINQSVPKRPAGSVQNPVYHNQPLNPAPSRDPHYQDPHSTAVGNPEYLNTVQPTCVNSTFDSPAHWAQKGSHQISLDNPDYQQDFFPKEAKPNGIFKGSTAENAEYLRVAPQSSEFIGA
row,Structure (SMILES),IC50 [nM]
1,O=[N+]([O-])c1ccc2ncnc(Nc3ccccc3)c2c1,5000
2,COc1cc2ncnc(Nc3cc(Br)cc(Br)c3)c2cc1OC,113
3,Nc1ccc2ncnc(Nc3ccccc3)c2c1,770
4,COc1cc2c(Nc3cccc(Br)c3)ncnc2c(OC)c1OC,> 10000
5,CN(C)c1ccc2ncnc(Nc3cccc(Br)c3)c2c1,84
6,O=[N+]([O-])c1ccc2c(Nc3cccc(C(F)(F)F)c3)ncnc2c1,> 10000
7,O=[N+]([O-])c1ccc2c(Nc3cccc(Cl)c3)ncnc2c1,810
8,COc1ccc2c(Nc3cccc(Br)c3)ncnc2c1OC,> 10000
9,COc1ccc2c(Nc3ccccc3)ncnc2c1,120
10,CNc1cc2ncnc(Nc3cccc(Br)c3)c2cc1[N+](=O)[O-],68
11,O=[N+]([O-])c1ccc2c(Nc3ccccc3)ncnc2c1,12000
12,Fc1cccc(Nc2ncnc3ccccc23)c1,56
13,COc1cc2nc(C)nc(Nc3cccc(Br)c3)c2cc1OC,> 10000
14,COc1cc2ncnc(Nc3ccccc3Br)c2cc1OC,128
15,CCCCOc1cc2ncnc(Nc3cccc(Br)c3)c2cc1OCCCC,105
16,CN(C)c1cc2ncnc(Nc3cccc(Br)c3)c2cc1N,159
17,O=[N+]([O-])c1ccc2c(Nc3cccc(I)c3)ncnc2c1,540
18,COc1cc2nc(N)nc(Nc3cccc(Br)c3)c2cc1OC,463
19,O=[N+]([O-])c1ccc2ncnc(Nc3cccc(C(F)(F)F)c3)c2c1,> 10000
20,COc1ccc2ncnc(Nc3cccc(Br)c3)c2c1OC,1370
21,Nc1ccc2ncnc(Nc3cccc(C(F)(F)F)c3)c2c1,574
22,CN(C)c1cc2ncnc(Nc3cccc(Br)c3)c2cc1[N+](=O)[O-],2000

# Next, values leading:
row,IC50 [nM],Structure (SMILES)
1,0.072,COc1cc2ncnc(Nc3ccc(Br)c(Br)c3)c2cc1OC
2,28,CC(=O)Nc1cc2ncnc(Nc3cccc(Br)c3)c2cc1[N+](=O)[O-]
3,25,O=[N+]([O-])c1cc2c(Nc3cccc(Br)c3)ncnc2cc1Cl
4,6.5,Nc1cc2c(Nc3cccc(Br)c3)ncnc2cc1Cl
5,4.7,Oc1ccc2c(Nc3cccc(Br)c3)ncnc2c1
6,3.8,COc1cc2ncnc(Nc3cccc(Br)c3)c2cc1N
7,4,CNc1ccc2ncnc(Nc3cccc(Br)c3)c2c1
8,0.69,CNc1cc2ncnc(Nc3cccc(Br)c3)c2cc1N
9,2,Nc1ccc2c(Nc3cccc(F)c3)ncnc2c1
10,15,Brc1cccc(Nc2ncnc3cc4c(cc23)OCO4)c1
11,40,CC(=O)Nc1ccc2c(Nc3cccc(Br)c3)ncnc2c1
12,0.24,COc1cc2ncnc(Nc3cccc(C(F)(F)F)c3)c2cc1OC
13,0.006,CCOc1cc2ncnc(Nc3cccc(Br)c3)c2cc1OCC
14,29,COc1cc2ncnc(Nc3ccccc3)c2cc1OC
15,0.35,Nc1ccc2c(Nc3cccc(I)c3)ncnc2c1
16,11,CN(C)c1ccc2c(Nc3cccc(Br)c3)ncnc2c1
17,0.89,COc1cc2ncnc(Nc3cccc(I)c3)c2cc1OC
18,0.17,CCCOc1cc2ncnc(Nc3cccc(Br)c3)c2cc1OCCC
19,55,COc1ccc2ncnc(Nc3ccccc3)c2c1
20,0.67,COc1cc2ncnc(Nc3cccc(Br)c3)c2c(OC)c1OC
21,15,COc1cc2ncnc(Nc3cccc(Br)c3)c2cc1[N+](=O)[O-]
22,53,Nc1cc2ncnc(Nc3cccc(Br)c3)c2cc1[N+](=O)[O-]
23,0.96,COc1cc2ncnc(Nc3ccc(Br)cc3)c2cc1OC
24,30,COc1ccc2ncnc(Nc3cccc(Br)c3)c2c1
25,0.25,Nc1ccc2c(Nc3cccc(Cl)c3)ncnc2c1
